# From patent US20040044177A1, “Peptide compounds having improved binding affinity to somatostatin receptors” (priority 2002, published 2004)
# Bridge positions count the residues as written; N and C are the ends. Square brackets hold non-standard residues; d marks the D form. Peptide text beside a SMILES is read from it. * marks the point of attachment. DOTA = O=C(O)CN1CCN(CC(=O)O)CCN(CC(=O)*)CCN(CC(=O)O)CC1; 1Nal = N[C@@H](Cc1cccc2ccccc12)C(=O)O; Bta = N[C@@H](Cc1csc2ccccc12)C(=O)O; Thr(ol) = C[C@@H](O)[C@H](N)CO
# Key:
# [1] = molecular target: T1, human somatostatin receptor subtype hsst3 (Homo sapiens, UniProt P32745); test: In vitro binding affinity of peptide analogs (Table III), hsst3; conditions: DOTA complexed with stable Y or In
# T1 sequence (P32745 whole entry): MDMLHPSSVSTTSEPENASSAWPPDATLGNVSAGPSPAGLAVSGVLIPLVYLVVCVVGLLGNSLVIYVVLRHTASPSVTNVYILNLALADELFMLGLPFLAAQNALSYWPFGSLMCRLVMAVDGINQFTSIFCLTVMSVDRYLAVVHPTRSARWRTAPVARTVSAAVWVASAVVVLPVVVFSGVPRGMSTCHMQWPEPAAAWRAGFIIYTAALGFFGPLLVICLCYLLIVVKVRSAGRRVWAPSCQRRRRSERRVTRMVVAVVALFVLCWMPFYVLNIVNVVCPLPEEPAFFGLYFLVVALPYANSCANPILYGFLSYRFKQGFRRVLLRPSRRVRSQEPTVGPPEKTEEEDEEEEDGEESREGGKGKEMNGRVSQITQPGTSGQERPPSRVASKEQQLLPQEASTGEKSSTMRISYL
# Description: Table III, presents the binding affinity of the new compounds to human somatostatin receptor subtypes as compared to the compound, Y-DOTA-TATE, described by Srinivasan et al. (U.S. Pat. No. 5,830,431).
# (§1) IC50 values were determined as described by Reubi et al. (Eur J Nuc Med 28:836-846, 2001).
# [2] = molecular target: human somatostatin receptor subtype hsst5 (Homo sapiens, UniProt P35346); test: In vitro binding affinity of peptide analogs (Table III), hsst5; conditions: DOTA complexed with stable Y or In
# Chain of human somatostatin receptor subtype hsst5 (P35346 whole entry): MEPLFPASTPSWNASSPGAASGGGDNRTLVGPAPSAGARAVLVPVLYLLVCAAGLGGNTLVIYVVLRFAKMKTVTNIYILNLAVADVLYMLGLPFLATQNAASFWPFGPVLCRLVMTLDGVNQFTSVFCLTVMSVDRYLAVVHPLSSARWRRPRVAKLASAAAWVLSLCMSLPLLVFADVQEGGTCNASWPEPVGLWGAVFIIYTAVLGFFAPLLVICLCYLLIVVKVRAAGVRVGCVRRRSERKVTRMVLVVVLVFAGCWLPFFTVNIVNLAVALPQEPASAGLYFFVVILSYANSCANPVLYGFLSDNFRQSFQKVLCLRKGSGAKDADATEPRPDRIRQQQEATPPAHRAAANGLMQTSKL
# Description: as §1
# [3] = molecular target: T2, somatostatin human receptor subtype (hsst) 2 (Homo sapiens, UniProt P30874); test: In vitro binding affinity, transfected cell lines, hsst 2; conditions: compared with compound 7 (Y-DOTA-TOC)
# T2 construct: expressed in transfected cells
# T2 sequence (P30874 whole entry): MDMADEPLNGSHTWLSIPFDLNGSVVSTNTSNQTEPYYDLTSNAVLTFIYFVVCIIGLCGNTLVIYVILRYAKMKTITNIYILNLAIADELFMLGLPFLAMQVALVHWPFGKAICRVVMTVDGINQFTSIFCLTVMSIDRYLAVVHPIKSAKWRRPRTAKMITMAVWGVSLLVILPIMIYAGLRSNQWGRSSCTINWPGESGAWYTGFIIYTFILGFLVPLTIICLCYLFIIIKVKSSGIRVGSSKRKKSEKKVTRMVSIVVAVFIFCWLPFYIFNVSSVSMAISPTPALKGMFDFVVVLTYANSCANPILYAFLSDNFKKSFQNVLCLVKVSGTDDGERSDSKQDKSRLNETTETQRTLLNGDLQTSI
# [4] = molecular target: T1, human somatostatin receptor subtype hsst3; test: In vitro binding affinity, transfected cell lines, hsst 3; design: expressed in transfected cells; conditions: compared with cpd. 6 (Y-DOTA-LAN)
Structure (SMILES),IC50 [1] [nM],IC50 [2] [nM],binding affinity to sst 2 relative to compound 7 [3],affinity to sst 3 relative to cpd. 6 [4]
C[C@@H](O)[C@H](NC(=O)[C@@H]1CSSC[C@H](NC(=O)[C@@H](Cc2ccccc2)NC(=O)CN2CCN(CC(=O)O)CCN(CC(=O)O)CCN(CC(=O)O)CC2)C(=O)N[C@@H](Cc2ccc(O)c(I)c2)C(=O)N[C@H](Cc2c[nH]c3ccccc23)C(=O)N[C@@H](CCCCN)C(=O)N[C@@H]([C@@H](C)O)C(=O)N1)C(=O)O [compound 2],170,65,,
"C[C@@H](O)[C@@H]1NC(=O)[C@H](CCCCN)NC(=O)[C@@H](Cc2c[nH]c3ccccc23)NC(=O)[C@H](Cc2cccc3ccccc23)NC(=O)[C@@H](NC(=O)[C@@H](Cc2ccccc2)NC(=O)CN2CCN(CC(=O)O)CCN(CC(=O)O)CCN(CC(=O)O)CC2)CSSC[C@@H](C(=O)N[C@H](CO)[C@@H](C)O)NC1=O [cpd. 8, ^90Y-labelled DOTA-(D)Phe-cyclo[Cys-(D) 1-Nal-(D)Trp-Lys-Thr-Cys]-Thr-ol, metal not drawn] ({DOTA}-[dF]C[1Nal][dW]KTC[Thr(ol)]; disulfide 2-7)",,,approx. three times better,approx. five times better
"C[C@@H](O)[C@@H]1NC(=O)[C@H](CCCCN)NC(=O)[C@@H](Cc2c[nH]c3ccccc23)NC(=O)[C@H](Cc2csc3ccccc23)NC(=O)[C@@H](NC(=O)[C@@H](Cc2ccccc2)NC(=O)CN2CCN(CC(=O)O)CCN(CC(=O)O)CCN(CC(=O)O)CC2)CSSC[C@@H](C(=O)N[C@H](CO)[C@@H](C)O)NC1=O [cpd. 9, ^90Y-labelled DOTA-(D)Phe-cyclo[Cys-(D)3-benzothienylalanyl-(D)Trp-Lys-Thr-Cys]-Thr-ol, metal not drawn] ({DOTA}-[dF]C[Bta][dW]KTC[Thr(ol)]; disulfide 2-7)",,,approx. three times better,
